IC50 data for 14 compounds are collected here from ChEMBL document CHEMBL1140520, “Synthesis and biological evaluation of substituted 6-alkynyl-4-anilinoquinazoline derivatives as potent EGFR inhibitors” (Bioorg Med Chem Lett, 2007).

The target in the experiment is Epidermal growth factor receptor (Homo sapiens, UniProt P00533).
Chain of Epidermal growth factor receptor (P00533 whole entry): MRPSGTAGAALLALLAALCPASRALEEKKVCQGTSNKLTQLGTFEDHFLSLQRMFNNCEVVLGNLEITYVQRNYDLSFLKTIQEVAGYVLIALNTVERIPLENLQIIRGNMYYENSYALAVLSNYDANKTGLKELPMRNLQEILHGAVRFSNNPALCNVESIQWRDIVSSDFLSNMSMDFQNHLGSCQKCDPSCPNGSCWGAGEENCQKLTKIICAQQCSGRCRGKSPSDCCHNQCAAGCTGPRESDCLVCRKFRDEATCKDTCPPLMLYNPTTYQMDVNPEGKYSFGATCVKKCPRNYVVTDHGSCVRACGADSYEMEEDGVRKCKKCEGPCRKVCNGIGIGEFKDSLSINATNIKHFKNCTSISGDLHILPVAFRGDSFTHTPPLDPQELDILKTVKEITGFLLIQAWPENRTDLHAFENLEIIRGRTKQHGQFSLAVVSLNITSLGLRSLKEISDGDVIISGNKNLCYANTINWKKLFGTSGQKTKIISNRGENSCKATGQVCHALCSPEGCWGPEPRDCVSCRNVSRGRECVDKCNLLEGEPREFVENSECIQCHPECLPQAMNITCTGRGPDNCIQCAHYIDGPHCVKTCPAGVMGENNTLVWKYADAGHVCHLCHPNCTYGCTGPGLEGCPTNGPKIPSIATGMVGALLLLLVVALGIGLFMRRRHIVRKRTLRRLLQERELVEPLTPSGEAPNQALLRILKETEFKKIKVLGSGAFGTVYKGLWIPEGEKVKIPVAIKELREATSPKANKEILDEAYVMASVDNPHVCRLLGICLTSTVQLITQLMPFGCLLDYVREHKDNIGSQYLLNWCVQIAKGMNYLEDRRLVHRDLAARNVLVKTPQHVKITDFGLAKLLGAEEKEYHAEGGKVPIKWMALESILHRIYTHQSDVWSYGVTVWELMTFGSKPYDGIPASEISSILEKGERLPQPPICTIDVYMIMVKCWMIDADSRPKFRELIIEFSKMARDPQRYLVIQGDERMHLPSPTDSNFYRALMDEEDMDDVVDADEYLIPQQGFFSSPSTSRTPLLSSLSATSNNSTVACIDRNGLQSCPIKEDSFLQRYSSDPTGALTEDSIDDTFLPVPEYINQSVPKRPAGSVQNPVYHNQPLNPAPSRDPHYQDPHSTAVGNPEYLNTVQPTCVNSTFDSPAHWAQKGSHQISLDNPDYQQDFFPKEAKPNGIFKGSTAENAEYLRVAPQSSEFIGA

Consider `C#Cc1cccc(Nc2ncnc3cc(OC)c(OC)cc23)c1`, for which half-maximal inhibition (IC50) required 28.8 nM. Consider `COc1cc2ncnc(Nc3cccc(C#CCCO)c3)c2cc1OC`, for which inhibition was half-maximal at 402 nM (IC50). `Fc1ccc(Nc2ncnc3ccc(C#Cc4ccccc4)cc23)cc1Cl` registered an IC50 of 331 nM. The IC50 values of the last two compounds are within 1.5-fold of each other.

For `COc1cc2ncnc(Nc3cccc(C#CCCCO)c3)c2cc1OC`, the IC50 was 1360 nM. Then `Fc1ccc(Nc2ncnc3ccc(C#CCN4CCOCC4)cc23)cc1Cl`, with 50.3 nM. As for `OCCC#Cc1ccc2ncnc(Nc3ccc(F)c(Cl)c3)c2c1`, the figure is 186 nM; as for `CC(C)(O)C#Cc1ccc2ncnc(Nc3ccc(F)c(Cl)c3)c2c1`, 152 nM. As for `OCCCC#Cc1ccc2ncnc(Nc3ccc(F)c(Cl)c3)c2c1`, the figure is 114 nM. For `COc1cc2ncnc(Nc3cccc(C#CCO)c3)c2cc1OC`, the IC50 was 1640 nM.

Compound `Fc1ccc(Nc2ncnc3ccc(C#CCN4CCCCC4)cc23)cc1Cl` gave a 50% inhibitory concentration (IC50) of 88.7 nM.

`COc1cc2ncnc(Nc3cccc(C#CC(C)(C)O)c3)c2cc1OC` returned an IC50 of 206 nM. This IC50 is about 2.3-fold higher than that of the compound before.

`OCC#Cc1ccc2ncnc(Nc3ccc(F)c(Cl)c3)c2c1`: the IC50 stood at 14.1 nM. This IC50 lies about 15-fold lower than the previous one. Then `COc1cc2ncnc(Nc3cccc(C#Cc4ccccc4)c3)c2cc1OC`, with 921 nM; and `C#Cc1ccc2ncnc(Nc3ccc(F)c(Cl)c3)c2c1`, with 127 nM.

One may read the IC50 as the concentration that inhibits the measured activity by half.
